The record followed here is article PMC2765688, “Functional Characterization of N-Terminally GFP-Tagged GLP-1 Receptor” (Journal of Biomedicine and Biotechnology, 2009).

Assay [1] has as its target T1, GFP-GLP-1 receptor (Homo sapiens, UniProt P43220).
T1 construct: linker: translated MCS of pEGFP-C3 plus translated 5'-untranslated region of clone hGLPR-6(20), between EGFP and the receptor (N); expressed in transfected cells; host or cells: CHO cells, transient transfection, pEGFP-C3
Nature of the assay: cAMP production, CHO cells expressing GFP-GLP-1 receptor. Type of assay: cell-based. The conditions noted are these: 10 μM forskolin, 15 min, 37°C. On the technique in general: cAMP levels reflect the balance of adenylyl cyclase and phosphodiesterase activity.
Protocol: (§1) Cells were plated in 6-well plates at 50 × 10^4 cells/well and incubated 24 hours in growth medium supplemented with 10% fetal bovine serum.
(§2) After stimulation, stimulating buffer was removed and replaced with 150 μL of TE buffer (50 mM Tris, 5 mM EDTA, pH = 7.4). Cells were lysed by scraping, followed by boiling at 100°C for 5 minutes and centrifuged at 16000× g for 10 minutes. The supernatant was collected and the total content of cAMP was measured by a specific radioimmunoassay (Amersham).
(§3) Statistical analysis (one-way ANOVA) was carried out by Prism 4 computer program (GraphPad Software, USA), which was used also for graphical presentation of the results. In ANOVA analysis Tukey-Kramer multiple comparison test was used to reveal significant differences between groups of interest; P > .05 was not considered significant.

Assay [2] concerns the target T2, human GLP-1 receptor (Homo sapiens, UniProt P43220).
T2 construct: expressed in transfected cells; host or cells: CHO cells, transient transfection, pcDNA3
Nature of the assay: cAMP production, CHO cells expressing GLP-1 receptor. Particulars: 10 μM forskolin, 15 min, 37°C, P < .001. Type of assay: cell-based.
Protocol: as §1, §2, §3

As for `C=C[C@@]1(C)CC(=O)[C@]2(O)[C@@]3(C)[C@@H](O)CCC(C)(C)[C@@H]3[C@H](O)[C@H](OC(C)=O)[C@@]2(C)O1` [forskolin], the “cAMP production in response to forskolin (in words)” value in assay [1] (CHO cells expressing GFP-GLP-1 receptor, P < .001) is “significantly increased”; in assay [2], “significantly increased”. Besides, the “Sensitivity to forskolin of GFP-GLP-1 receptor cells in comparison to GLP-1 receptor cells (in words)” value in assay [1] (Tukey-Kramer test) is “not more sensitive”.
